From the METLIN SMRT retention time set (Domingo-Almenara et al. 2019) come the findings set out here.

The nature of the data set: gradient 5% acetonitrile 3 min, to 50% in 2 min, to 85% in 15 min, held 3 min, 100 µL/min. Conditions: column: Zorbax Extend-C18 2.1 x 50 mm; eluents: water / acetonitrile, 0.1% formic acid. The essentials:
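Retention time was recorded from adduct peaks, which were picked computationally and each inspected manually. Pure standards ran in mixtures of ~100 molecules on HPLC coupled to a quadrupole time-of-flight mass spectrometer, in positive and negative ionization mode, through a Zorbax Extend-C18 column (2.1 × 50 mm, 1.8 μm) at 100 μL/min. Eluents were water and acetonitrile, each with 0.1% formic acid.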
`O=C(CC1CCN(C(=O)c2ccc3oc(C4CC4)nc3c2)CC1)NCc1ccccn1` registered an RP-LC retention time of 605 s.
For `CCc1nnc(-c2ccc3ccn(CC(=O)NCc4ccc(OC)c(OC)c4)c3c2)o1` the value was 745 s; for `CC(C)CNC(=O)c1n[nH]c2c1CCCCCC2`, 850 s; for `CCn1cc(CCNC(=O)C2CCCC2)c2cccnc21`, 654 s.
As to `O=C(NCc1ccco1)c1ccc(-c2ccc(N3CCSCC3)nc2)cc1`, the RP-LC retention time was determined as 708 s.
On to `O=C(NCc1ccc2c(c1)OCO2)c1cn(-c2cc(N3CCCC3)ncn2)cn1`, for which the RP-LC retention time turned out to be 775 s.
`Cc1cc(C(=O)N2CCC3(CC2)CC(O)CCO3)c(C)o1` (centres undefined) gave an RP-LC retention time of 624 s.
As for `CC(C)c1nc(C2CN(C(=O)Nc3ccc(F)cc3)C2)n(C)n1`, the figure is 672 s.
In the case of `O=C1[C@H]2CN(Cc3c[nH]c4ccccc34)C[C@H]2C(=O)N1CCc1ccccc1`, the RP-LC retention time amounted to 692 s.
The compound `CCOC(=O)C(C)NC(=O)N1CCN(Cc2nc3cccnc3n2-c2cc(C)cc(C)c2)CC1` (centres undefined) returned an RP-LC retention time of 658 s.
On to `Cc1nc(-c2cc(S(=O)(=O)Nc3ccc(F)c(Cl)c3)c(C)s2)cs1`, for which the RP-LC retention time was found to be 1030 s.
For the compound `Cc1ccccc1Cn1nc2c(S(=O)(=O)N3CCCC3)cccn2c1=O`, the RP-LC retention time came out at 846 s.
On to `COc1ccc(C(=O)Nc2nccnc2C(=O)NC2CCCCC2)cc1`, for which the RP-LC retention time was determined as 1040 s.
As to `CN(C)C(=O)c1ccc2c(c1)nc(CN(C)C(=O)Nc1ccccc1Br)n2C`, the RP-LC retention time came out at 618 s.
`Cc1ccc(CNC(=O)CC2CCOCC2)o1`: the RP-LC retention time was 663 s.
For `COc1cccc(NC(=O)N2CCN(c3nc4ccccc4n3Cc3ccccc3)CC2)c1` the value was 614 s.
As for `CCOC(=O)c1cc(S(=O)(=O)N2CCCC2C(=O)Nc2ccc(F)cc2)cn1C` (centres undefined), the figure is 920 s; as for `Cc1nc([C@@H]2CN(C(=O)c3cccn3C)C[C@H]2C(N)=O)n[nH]1`, 576 s.
For the compound `O=C(CCC1CCCN(c2cc(NC3CC3)ncn2)C1)NC1CCN(Cc2ccccc2)CC1` (centres undefined), the RP-LC retention time worked out at 570 s.
As for `Cn1nc(-c2nnc(-c3ccccc3F)o2)c2c1CCN(S(=O)(=O)c1ccc(F)cc1)C2`, the RP-LC retention time was found to be 903 s.
For `O=C(C1CCN(S(=O)(=O)c2ccc(-c3noc(/C=C/c4cccs4)n3)cc2)CC1)N1CCCC1` the value was 1050 s.
For `O=C(Nc1nccs1)c1cc(Cl)sc1Cl` the value was 836 s; for `Cn1nc(C(=O)N2CCCC2)c2c1CCN(C(=O)CCC(=O)N1CCCCC1)C2`, 653 s.
In the case of `COc1ccc(NC(=O)c2cn(C)nc2S(=O)(=O)N2CCC(C)CC2)c(F)c1`, the RP-LC retention time is 997 s.
For the compound `CCN1CCCn2cc(S(=O)(=O)Nc3ccc(Cl)cc3C)cc2C1=O`, the RP-LC retention time stood at 790 s.
`Cc1cccc(C)c1NC(=O)Cn1nc(N2CCSCC2)c2ccccc2c1=O` gave an RP-LC retention time of 892 s.
As for `COc1ccc(Nc2nccc(C3CCCN(C(=O)C(C)(C)C)C3)n2)cc1` (centres undefined), the figure is 892 s.
As for `CN(C)C(CNS(=O)(=O)/C=C/c1ccccc1)c1cn(C)c2ccccc12` (centres undefined), the figure is 602 s; as for `CCCc1ccc(S(=O)(=O)N(C)CC2CCOCC2)cc1`, 1020 s.
For the compound `CN1CCC(NC(=O)c2n[nH]c3c2CN(C(=O)c2ccc(F)cc2F)CC3)CC1`, the RP-LC retention time is 578 s.
For `CCOc1cccc(CNC(=O)c2sc3ncccc3c2-n2cccc2)c1` the value was 1050 s; for `CCCC(=O)Nc1ccc2nc(N3CCN(CC(=O)N4CCCCCC4)CC3)cc(C(=O)O)c2c1`, 587 s; for `CC(C)N1C(=O)c2cccnc2Sc2cc(NC(=O)CCc3ccccc3)ccc21`, 922 s.
As for `CCn1cc(CCNC(=O)NCC(C)C)c2cccnc21`, the figure is 636 s; as for `COc1cc(NC(=O)Nc2nccn(-c3ccc(C)c(C)c3)c2=O)cc(OC)c1`, 955 s.
In turn, `O=C(NCc1ccnc(N2CCCCCC2)c1)Nc1ccc2c(c1)OCO2` displayed an RP-LC retention time of 622 s.
In turn, `O=S(=O)(CCOc1ccccc1)NCc1ccc2c(c1)OCO2` gave an RP-LC retention time of 806 s.
In turn, `CC(C)CNc1nc(-c2ccc([N+](=O)[O-])cc2)nc2ccccc12` showed an RP-LC retention time of 821 s.
As to `CCC(C)NS(=O)(=O)c1cc(-c2nc(C)cs2)n(CC(=O)N2CCCCC2)c1` (centres undefined), the RP-LC retention time turned out to be 920 s.
As to `CC1CCN(C(=O)CSc2nnc(-c3ccc(F)cc3)o2)CC1`, the RP-LC retention time turned out to be 958 s.
As for `O=C(Nc1nc2c(s1)CN(Cc1ccccc1)CC2)c1cccc(N2C(=O)CCC2=O)c1`, the figure is 548 s; as for `O=C1NCCCn2cc(S(=O)(=O)Nc3ccc(F)cc3Cl)cc21`, 650 s; as for `O=C(NCCc1c[nH]c2ccccc12)C1CC(=O)N(c2n[nH]c3cccc(F)c23)C1` (centres undefined), 710 s.
As for `O=C(c1cc(-c2ccccn2)n[nH]1)N1CCCC(C(=O)N2CCc3ccccc3C2)C1` (centres undefined), the figure is 688 s; as for `CN(C)C(=O)c1cc2c(s1)CCC(C(=O)NCc1ccccc1)C2` (centres undefined), 628 s.
The compound `O=C(Nc1ccc(NC(=O)N2CCCC(C(=O)NCC3CC3)C2)cc1)NC1CCCC1` (centres undefined) had an RP-LC retention time of 692 s.
As for `CCN(c1ccccc1)S(=O)(=O)c1cc(-c2[nH]ncc2C(=O)N2CCCCC2)oc1C`, the figure is 822 s.
Compound `N#Cc1ccc(C(=O)Nc2cccc(-c3nnc4n3CCCC4)c2)cc1` displayed an RP-LC retention time of 665 s.
In turn, `O=C(NC1CCN(Cc2ccccc2)CC1)c1ccc2c(=O)n3c(nc2c1)CCCC3` returned an RP-LC retention time of 579 s.
`CCCN1C(=O)c2cc(C(=O)NCc3ccccc3F)nn2CC1(C)C(=O)NC1CCCC1` (centres undefined): the RP-LC retention time is 836 s.
As for `Cc1cc(Cl)ccc1NC(=O)c1cc2c(=O)n(CC(C)C)ccc2n1C`, the figure is 900 s; as for `CCN(C(=O)Cn1c(CN(C)C(=O)c2ccco2)nc2ccccc21)c1ccccc1`, 704 s; as for `Cn1c(C(=O)NC2CCCCCC2)cc2sccc21`, 1020 s.
Turning to `Cc1noc(-c2nn(C)c3c2CN(C(=O)CC2CCCC2)CC3)n1`, the RP-LC retention time came out at 759 s.
As for `CC1(C(=O)Oc2ccc(Cl)cc2)Cc2ccccc2C(=O)O1` (centres undefined), the figure is 942 s; as for `COc1cccc(-n2c(=O)c(C(=O)Nc3cc(F)ccc3F)c(O)c3cccnc32)c1`, 1270 s; as for `Cc1ccc(-c2noc(Cn3ccnc3C)n2)cc1C`, 670 s.
On to `Cc1cccc(NC(=O)Nc2ccc3nnc(C)n3c2)c1`, for which the RP-LC retention time amounted to 747 s.
For `CCOC(=O)c1cccc(NC(=O)Cn2ccc3ccc(-c4nnc(CC)o4)cc32)c1` the value was 910 s; for `CCOC(=O)c1cccc(NS(=O)(=O)c2cc(-c3c(CC)noc3NC(C)=O)ccc2OC)c1`, 814 s.
For `CCC1Oc2ccc(S(=O)(=O)N3CCC(C(=O)NCc4ccc(Cl)cc4)CC3)cc2NC1=O` (centres undefined), the RP-LC retention time worked out at 887 s.
As for `O=C(C1CCN(S(=O)(=O)c2ccc(-c3noc(C4CCCC4)n3)cc2)CC1)N1CCCC1`, the figure is 1030 s.
For `COc1cc(-c2noc(Cc3nnc(-c4ccc(C)c(C)c4)o3)n2)cc(OC)c1OC` the value was 1010 s.
As for `CCN1C(=O)CCc2cc(NS(=O)(=O)c3cccc4cccnc34)ccc21`, the figure is 758 s; as for `O=C(N1CCOC(c2ccc(C(F)(F)F)cc2)C1)C1(c2ccc(F)cc2)CC1` (centres undefined), 1020 s.
The compound `O=C1NC(=O)/C(=C/c2ccc(C(=O)Nc3ccc(C(=O)O)cc3)cc2)S1` had an RP-LC retention time of 648 s.
Compound `CCCn1cc(C(=O)NCCCOC)c(S(=O)(=O)N2CCN(c3cccc(Cl)c3)CC2)n1` came in with an RP-LC retention time of 1020 s.
With `Cc1cc(C)cc(NC(=O)Cc2c(C(=O)O)c(C)cn2C)c1`, the RP-LC retention time was found to be 739 s.
As for `CCN(CC)C(C(=O)NC1CCCC1)c1cc2c(cc1[N+](=O)[O-])OCO2` (centres undefined), the figure is 586 s; as for `COc1ccc(Nc2c(-c3nc(C)no3)cnc3nc(C)ccc23)cc1Cl`, 736 s.
In turn, `O=C(CCn1nnc2cc(-c3noc(-c4ccc(F)cc4)n3)ccc21)N1CCOCC1` yielded an RP-LC retention time of 849 s.
For `CCn1ccc(C(=O)N2CC(c3nc(C4CC4)no3)C3(CCN(C)CC3)C2)n1` (centres undefined) the value was 586 s; for `Cn1nc(N2CCC(NC(=O)Cc3cccs3)C2)ccc1=O` (centres undefined), 627 s.
As for `Cc1ccc(Nc2c(-c3ccc(O)cc3)nc3ccccn23)cc1`, the figure is 656 s; as for `COc1ccc(C)cc1NC(=O)Cn1nc2c(Oc3ccccc3C)nccn2c1=O`, 896 s.
For `Cn1c(C2CCN(S(=O)(=O)c3ccccc3Cl)CC2)cc(=O)n2nccc12` the value was 708 s.
The compound `CCCN(Cc1ccc(OC)c(OC)c1)Cc1cc(=O)n2cc(C)ccc2n1` displayed an RP-LC retention time of 611 s.
Regarding `CC1SC(C)C(=O)N(CC(=O)NCc2ccco2)C1=O` (centres undefined), the RP-LC retention time was found to be 685 s.
In turn, `Cc1ccc(-c2nc3cnccn3c2NCCC(=O)NCc2ccco2)cc1` displayed an RP-LC retention time of 684 s.
